Test results taken from the supplement of paper PMC9005190.

Key:
S1P1 [1] = target: S1P1 (UniProt P21453); test: pEC50 of agonist-induced pathway activation (ebBRET)
S1P1 [2] = target: S1P1 (UniProt P21453); test: Emax (maximal agonist-induced change in ebBRET relative to vehicle) (% of vehicle response (amplitude of change)); higher = larger response (for Gs, larger decrease in membrane ebBRET, i.e. stronger Gs activation)
GPR183 [3] = target: GPR183 (UniProt P32249); test: pEC50 of agonist-induced pathway activation (ebBRET)
GPR183 [4] = target: GPR183 (UniProt P32249); test: Emax (maximal agonist-induced change in ebBRET relative to vehicle) (% of vehicle response (amplitude of change)); higher = larger response (for Gs, larger decrease in membrane ebBRET, i.e. stronger Gs activation)
CRFR2 [5] = target: T1, CRFR2 (UniProt Q13324); test: pEC50 of agonist-induced pathway activation (ebBRET)
T1 sequence (whole entry): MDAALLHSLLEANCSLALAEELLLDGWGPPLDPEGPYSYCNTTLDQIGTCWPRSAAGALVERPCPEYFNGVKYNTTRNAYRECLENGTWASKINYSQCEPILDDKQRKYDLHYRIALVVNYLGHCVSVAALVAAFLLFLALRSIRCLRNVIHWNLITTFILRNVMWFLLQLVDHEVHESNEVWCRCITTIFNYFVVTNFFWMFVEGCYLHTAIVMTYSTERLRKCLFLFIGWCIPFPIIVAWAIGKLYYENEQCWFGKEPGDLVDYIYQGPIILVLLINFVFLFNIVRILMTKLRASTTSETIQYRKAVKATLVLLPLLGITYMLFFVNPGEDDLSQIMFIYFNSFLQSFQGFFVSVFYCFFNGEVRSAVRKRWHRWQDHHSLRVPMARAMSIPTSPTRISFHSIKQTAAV

CRFR2 [6] = target: T1, CRFR2; test: Emax (maximal agonist-induced change in ebBRET relative to vehicle) (% of vehicle response (amplitude of change)); higher = larger response (for Gs, larger decrease in membrane ebBRET, i.e. stronger Gs activation)
GPR39 [7] = target: T2, GPR39 (UniProt O43194); test: pEC50 of agonist-induced pathway activation (ebBRET)
T2 sequence (whole entry): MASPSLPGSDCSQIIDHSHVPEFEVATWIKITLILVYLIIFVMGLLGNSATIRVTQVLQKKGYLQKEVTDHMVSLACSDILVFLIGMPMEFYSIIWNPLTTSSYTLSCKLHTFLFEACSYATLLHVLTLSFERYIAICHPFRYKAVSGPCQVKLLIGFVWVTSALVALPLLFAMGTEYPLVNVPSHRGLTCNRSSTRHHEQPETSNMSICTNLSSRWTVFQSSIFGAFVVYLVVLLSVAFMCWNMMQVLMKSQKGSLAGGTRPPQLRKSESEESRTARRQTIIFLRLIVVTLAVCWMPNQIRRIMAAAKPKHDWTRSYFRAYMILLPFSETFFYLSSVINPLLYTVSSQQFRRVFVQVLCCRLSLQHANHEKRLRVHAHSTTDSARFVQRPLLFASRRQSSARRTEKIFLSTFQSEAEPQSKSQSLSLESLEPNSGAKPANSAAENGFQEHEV

GPR39 [8] = target: T2, GPR39; test: Emax (maximal agonist-induced change in ebBRET relative to vehicle) (% of vehicle response (amplitude of change)); higher = larger response (for Gs, larger decrease in membrane ebBRET, i.e. stronger Gs activation)
PAR2 [9] = target: PAR2 (UniProt P55085); test: pEC50 of agonist-induced pathway activation (ebBRET)
PAR2 [10] = target: PAR2 (UniProt P55085); test: Emax (maximal agonist-induced change in ebBRET relative to vehicle) (% of vehicle response (amplitude of change)); higher = larger response (for Gs, larger decrease in membrane ebBRET, i.e. stronger Gs activation)

PAR2, sequence (P55085 whole entry): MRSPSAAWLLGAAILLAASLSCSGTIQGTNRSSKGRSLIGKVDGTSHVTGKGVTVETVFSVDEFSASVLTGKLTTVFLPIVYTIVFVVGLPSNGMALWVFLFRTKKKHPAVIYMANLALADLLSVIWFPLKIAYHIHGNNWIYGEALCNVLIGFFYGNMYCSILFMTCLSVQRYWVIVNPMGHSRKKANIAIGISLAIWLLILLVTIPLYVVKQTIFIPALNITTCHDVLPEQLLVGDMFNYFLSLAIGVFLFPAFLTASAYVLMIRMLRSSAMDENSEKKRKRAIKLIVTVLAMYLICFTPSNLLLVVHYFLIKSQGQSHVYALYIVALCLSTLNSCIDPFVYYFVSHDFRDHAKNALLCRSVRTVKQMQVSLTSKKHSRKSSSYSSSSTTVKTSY
S1P1, sequence (P21453 whole entry): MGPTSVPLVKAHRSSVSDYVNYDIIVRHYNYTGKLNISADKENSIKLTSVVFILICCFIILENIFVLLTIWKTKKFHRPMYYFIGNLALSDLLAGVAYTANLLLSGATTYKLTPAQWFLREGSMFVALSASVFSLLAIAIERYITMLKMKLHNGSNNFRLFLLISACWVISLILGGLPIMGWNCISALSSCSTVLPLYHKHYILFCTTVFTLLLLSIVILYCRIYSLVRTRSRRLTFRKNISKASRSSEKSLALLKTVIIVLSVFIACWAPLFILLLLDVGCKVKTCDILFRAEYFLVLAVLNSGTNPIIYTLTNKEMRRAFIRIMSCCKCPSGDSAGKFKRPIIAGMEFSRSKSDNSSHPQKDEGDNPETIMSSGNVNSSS
GPR183, sequence (P32249 whole entry): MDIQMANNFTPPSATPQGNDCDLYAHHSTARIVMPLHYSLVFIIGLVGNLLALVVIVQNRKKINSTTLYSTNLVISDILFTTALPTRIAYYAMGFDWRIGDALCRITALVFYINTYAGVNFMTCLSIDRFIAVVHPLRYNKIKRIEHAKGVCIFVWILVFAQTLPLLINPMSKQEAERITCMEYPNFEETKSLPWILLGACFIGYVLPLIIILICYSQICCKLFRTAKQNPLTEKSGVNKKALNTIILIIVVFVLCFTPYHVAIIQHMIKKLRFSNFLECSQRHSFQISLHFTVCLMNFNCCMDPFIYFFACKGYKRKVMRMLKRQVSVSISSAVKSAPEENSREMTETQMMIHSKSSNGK

CCCCCCCCCCCCC/C=C/[C@@H](O)[C@@H](N)COP(=O)(O)O [Sphingosine 1-phosphate]
Details | Emax, S1P1 [2] | pEC50, S1P1 [1]
pathway (G protein / arrestin sensor): G12 | 92 | 7.18
pathway (G protein / arrestin sensor): G13 | 175 | 6.86
pathway (G protein / arrestin sensor): G15 | 375 | 6.21
pathway (G protein / arrestin sensor): Gi1 | 132 | 8.15
pathway (G protein / arrestin sensor): Gi2 | 99.8 | 7.95
pathway (G protein / arrestin sensor): GoA | 68.5 | 7.75
pathway (G protein / arrestin sensor): GoB | 59.2 | 8.16
pathway (G protein / arrestin sensor): βarr1/GRK2 | 477 | 7.27
pathway (G protein / arrestin sensor): βarr2 | 227 | 6.83
pathway (G protein / arrestin sensor): βarr2/GRK2 | 557 | 7.46

C[C@H](CCCC(C)(C)O)[C@H]1CC[C@H]2[C@@H]3[C@H](O)C=C4C[C@@H](O)CC[C@]4(C)[C@H]3CC[C@]12C [7α-25 dihydroxycholesterol]
Details | Emax, GPR183 [4] | pEC50, GPR183 [3]
pathway (G protein / arrestin sensor): G12 | 53.4 | 8.98
pathway (G protein / arrestin sensor): G15 | 38.1 | 8.51
pathway (G protein / arrestin sensor): Gi1 | 134 | 9.74
pathway (G protein / arrestin sensor): Gi2 | 144 | 9.75
pathway (G protein / arrestin sensor): GoA | 166 | 9.16
pathway (G protein / arrestin sensor): GoB | 190 | 9.75
pathway (G protein / arrestin sensor): Gz | 123 | 9.16
pathway (G protein / arrestin sensor): βarr1/GRK2 | 1120 | 8.95
pathway (G protein / arrestin sensor): βarr2 | 502 | 8.23
pathway (G protein / arrestin sensor): βarr2/GRK2 | 573 | 8.8

CC[C@H](C)[C@H](N)C(=O)N[C@H](C(=O)N[C@@H](CC(C)C)C(=O)N[C@@H](CO)C(=O)N[C@@H](CC(C)C)C(=O)N[C@@H](CC(=O)O)C(=O)N[C@H](C(=O)N1CCC[C@H]1C(=O)N[C@H](C(=O)NCC(=O)N[C@@H](CC(C)C)C(=O)N[C@@H](CC(C)C)C(=O)N[C@@H](CCC(N)=O)C(=O)N[C@H](C(=O)N[C@@H](CC(C)C)C(=O)N[C@@H](CC(C)C)C(=O)N[C@@H](CCC(=O)O)C(=O)N[C@@H](CCC(N)=O)C(=O)N[C@@H](C)C(=O)N[C@@H](CCCNC(=N)N)C(=O)N[C@@H](C)C(=O)N[C@@H](CCCNC(=N)N)C(=O)N[C@@H](C)C(=O)N[C@@H](C)C(=O)N[C@@H](CCCNC(=N)N)C(=O)N[C@@H](CCC(=O)O)C(=O)N[C@@H](CCC(N)=O)C(=O)N[C@@H](C)C(=O)N[C@H](C(=O)N[C@H](C(=O)N[C@@H](CC(N)=O)C(=O)N[C@@H](C)C(=O)N[C@@H](CCCNC(=N)N)C(=O)N[C@H](C(=O)N[C@@H](CC(C)C)C(=O)N[C@@H](C)C(=O)N[C@@H](CCCNC(=N)N)C(=O)N[C@H](C(=O)NCC(=O)N[C@@H](Cc1cnc[nH]1)C(=O)N[C@@H](CS)C(N)=O)C(C)C)[C@@H](C)CC)[C@@H](C)O)[C@@H](C)O)[C@@H](C)CC)[C@@H](C)CC)C(C)C)C(C)C [Urocortin II]
Details | Emax, CRFR2 [6] | pEC50, CRFR2 [5]
pathway (G protein / arrestin sensor): G15 | 725 | 8.77
pathway (G protein / arrestin sensor): Gi1 | 442 | 8.2
pathway (G protein / arrestin sensor): Gi2 | 206 | 8.28
pathway (G protein / arrestin sensor): GoA | 159 | 8.33
pathway (G protein / arrestin sensor): GoB | 263 | 8.37
pathway (G protein / arrestin sensor): Gs | 57.3 | 10.3
pathway (G protein / arrestin sensor): Gz | 72.8 | 8.2
pathway (G protein / arrestin sensor): βarr1/GRK2 | 1420 | 8.08
pathway (G protein / arrestin sensor): βarr2 | 1090 | 7.98
pathway (G protein / arrestin sensor): βarr2/GRK2 | 1440 | 8.16

[Cl][Zn][Cl] [Zn2+]
Details | Emax, GPR39 [8] | pEC50, GPR39 [7]
pathway (G protein / arrestin sensor): G11 | 136 | 4.21
pathway (G protein / arrestin sensor): G13 | 120 | 5.39
pathway (G protein / arrestin sensor): G14 | 210 | 4.25
pathway (G protein / arrestin sensor): G15 | 37.6 | 4.38
pathway (G protein / arrestin sensor): Gi1 | 254 | 4.1
pathway (G protein / arrestin sensor): Gi2 | 80.9 | 4.19
pathway (G protein / arrestin sensor): GoA | 137 | 4.16
pathway (G protein / arrestin sensor): GoB | 197 | 4.25
pathway (G protein / arrestin sensor): Gq | 113 | 4.48
pathway (G protein / arrestin sensor): βarr2 | 61.7 | 4.03
pathway (G protein / arrestin sensor): βarr2/GRK2 | 41.4 | 4.02

CC[C@H](C)[C@H](NC(=O)[C@H](CC(C)C)NC(=O)[C@@H](N)CO)C(=O)NCC(=O)N[C@@H](CCCCN)C(=O)N[C@H](C(N)=O)C(C)C [SLIGKV-NH2]
Details | Emax, PAR2 [10] | pEC50, PAR2 [9]
pathway (G protein / arrestin sensor): G11 | 483 | 5.96
pathway (G protein / arrestin sensor): G12 | 41.5 | 7.79
pathway (G protein / arrestin sensor): G13 | 235 | 6.87
pathway (G protein / arrestin sensor): G14 | 419 | 5.46
pathway (G protein / arrestin sensor): G15 | 498 | 5.81
pathway (G protein / arrestin sensor): Gi1 | 621 | 5.32
pathway (G protein / arrestin sensor): Gi2 | 326 | 5.65
pathway (G protein / arrestin sensor): GoA | 217 | 5.85
pathway (G protein / arrestin sensor): GoB | 320 | 6.32
pathway (G protein / arrestin sensor): Gq | 304 | 5.18
pathway (G protein / arrestin sensor): Gz | 188 | 6.23
pathway (G protein / arrestin sensor): βarr1/GRK2 | 861 | 4.65
pathway (G protein / arrestin sensor): βarr2 | 766 | 4.63
pathway (G protein / arrestin sensor): βarr2/GRK2 | 489 | 4.75
